The record followed here is patent US6620828B2, “Thiazole compounds and pharmaceutical compositions for inhibiting protein kinases and methods for their use” (Agouron Pharmaceuticals, Inc., priority 1999, dated 2003).

Assay [1] deals with T1, phosphorylated VEGF-R2Δ50 (FLVK-P) (Homo sapiens, UniProt P35968, DEL940-989/E990V).
T1 construct: VEGF-R2Δ50 contains residues 806-939 and 990-1171; made in house; host or cells: baculovirus/insect cells
Description: VEGF-R2 coupled spectrophotometric (FLVK-P) assay. The class given is biochemical. The note with it: for Ki: spectrophotometric assay; for FLVK-P % inhibition @ 50: at 50, concentration unit not printed (head nM); for inhibition at 1 µM: Table 3. From the text:
VEGF-R2 Construct for Assay: This construct determines the ability of a test compound to inhibit tyrosine kinase activity. A construct (VEGF-R2Δ50) of the cytosolic domain of human vascular endothelial growth factor receptor 2 (VEGF-R2) lacking the 50 central residues of the 68 residues of the kinase insert domain was expressed in a baculovirus/insect cell system. Of the 1356 residues of full-length VEGF-R2, VEGF-R2Δ50 contains residues 806-939 and 990-1171, and also one point mutation (E990V) within the kinase insert domain relative to wild-type VEGF-R2. Autophosphorylation of the purified construct was performed by incubation of the enzyme at a concentration of 4 μM in the presence of 3 mM ATP and 40 mM MgCl2 in 100 mM Hepes, pH 7.5, containing 5% glycerol and 5 mM DTT, at 4° C. for 2 h. […] See Parast et al., Biochemistry, 37, 16788-16801 (1998).
Coupled Spectrophotometric (FLVK-P) Assay
The production of ADP from ATP that accompanies phosphoryl transfer was coupled to oxidation of NADH using phosphoenolpyruvate (PEP) and a system having pyruvate kinase (PK) and lactic dehydrogenase (LDH). The oxidation of NADH was monitored by following the decrease of absorbance at 340 nm (e340=6.22 cm^−1 mM^−1) using a Beckman DU 650 spectrophotometer. Assay conditions for phosphorylated VEGF-R2Δ50 (indicated as FLVK-P in the tables below) were the following: 1 mM PEP; 250 μM NADH; 50 units of LDH/mL; 20 units of PK/mL; 5 mM DTT; 5.1 mM poly(E4Y1); 1 mM ATP; and 25 mM MgCl2 in 200 mM Hepes, pH 7.5. Assay conditions for unphosphorylated VEGF-R2Δ50 (indicated as FLVK in the tables) were the following: 1 mM PEP; 250 μM NADH; 50 units of LDH/mL; 20 units of PK/mL; 5 mM DTT; 20 mM poly(E4Y1); 3 mM ATP; and 60 mM MgCl2 and 2 mM MnCl2 in 200 mM Hepes, pH 7.5. Assays were initiated with 5 to 40 nM of enzyme. Ki values were determined by measuring enzyme activity in the presence of varying concentrations of test compounds. The data were analyzed using Enzyme Kinetic and Kaleidagraph software.

Assay [2] concerns human umbilical vein endothelial cells (HUVEC). Kind of assay: HUVEC proliferation assay. It counts as cell-based. The settings on record: Homo sapiens, HUVEC. In short, it runs like this:
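Exponentially growing HUVEC were serum-starved 24 h (F12K + 1% FBS), pre-treated 1 h with compound (0.1% DMSO final), then stimulated with 6 ng/ml VEGF. Proliferation was read 72 h later by MTT reduction (A595). IC50 came from seven 0.5-log concentrations in triplicate; screens gave % inhibition relative to VEGF-only and starved wells.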

Where a name gives a salt, the structure may show the parent alone.

T1 sequence (P35968 with tags, fused parts or gaps DEL940-989/E990V limits assumed): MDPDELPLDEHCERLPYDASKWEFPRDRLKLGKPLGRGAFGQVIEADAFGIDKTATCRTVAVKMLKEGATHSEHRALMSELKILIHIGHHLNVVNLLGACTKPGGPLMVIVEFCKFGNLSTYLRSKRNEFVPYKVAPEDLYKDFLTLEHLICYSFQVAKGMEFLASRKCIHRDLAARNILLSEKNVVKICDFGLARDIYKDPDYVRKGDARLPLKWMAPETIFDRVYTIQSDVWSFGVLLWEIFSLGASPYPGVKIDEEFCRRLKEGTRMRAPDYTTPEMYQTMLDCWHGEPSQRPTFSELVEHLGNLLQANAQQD

One may read the inhibition as the share of the control response that was lost under treatment. Read a low inhibition as a response near the control. Consider `COc1cc(Nc2nc(N)c(C3=NC(c4ccc5ccccc5c4)CO3)s2)cc(OC)c1OC` (stereo not shown) [I(20)], for which at 100 µM the inhibition in assay [1] (Table 2, at 100 μM) was 46%.

Usually Ki stands for the dissociation constant of the complex between target and ligand, obtained from inhibition or displacement. A lower Ki goes with a stronger hold on the target. Take `COc1cc(Nc2nc(N)c(C3=NC(c4ccc(O)cc4)CO3)s2)cc(OC)c1OC` (stereo not shown) [I(11), S-4-{2-[4-Amino-2-(3,4,5-trimethoxy-phenylamino)-thiazol-5-yl]-4,5-dihydro-oxazol-4-yl}-phenol]: the Ki in assay [1] (Table 2) amounted to 530 nM.

For the compound `COCOc1cccc(-c2noc(-c3sc(Nc4cc(OC)c(OC)c(OC)c4)nc3N)n2)c1` [B(4), 5-[3-(3-Methoxymethoxy-phenyl)-[1,2,4]oxadiazol-5-yl]-N^2-(3,4,5-trimethoxy-phenyl)-thiazole-2,4-diamine], the Ki in assay [1] (Table 2) was found to be 200 nM.

Turning to `CC(=O)Nc1nc(N)c(-c2nc(-c3cccc(NC(=O)c4cccc(Cl)c4)c3)no2)s1` [F(4), N-{3-[5-(2-Acetylamino-4-amino-thiazol-5-yl)-[1,2,4]oxadiazol-3-yl]-phenyl}-3-chloro-benzamide], the “FLVK-P % inhibition @ 50” value in assay [1] (Table 1) was 33% @.

Usually IC50 stands for the concentration at which inhibition is half-maximal. Read a low IC50 as greater potency in that assay. In assay [2] (Table 2), `COc1cc(Nc2nc(N)c(C3=N[C@@H](Cc4ccccc4)CO3)s2)cc(OC)c1OC` [I(1), S-5-(4-Benzyl-4,5-dihydro-oxazol-2-yl)-N^2-(3,4,5-trimethoxyl-pheny)-thiazole-2,4-diamine] registered an IC50 of 61 µM. The compound also displayed a Ki in assay [1] (Table 2) greater than 100000 nM.

For `CC(C)(C)OC(=O)Nc1cccc(-c2noc(-c3sc(Nc4cccc(C#N)c4)nc3N)n2)c1` [B(40)], the inhibition at 1 µM in assay [1] turned out to be 31%.

In the case of `COc1cc(Nc2nc(N)c(-c3nc(-c4cccc(NC(=O)c5cnc(C)s5)c4)cs3)s2)cc(OC)c1OC` [D(53), 2-Methyl-thiazole-5-carboxylic acid {3-[4′-amino-2′-(3,4,5-trimethoxy-phenylamino)-[2,5′]bithiazolyl-4-yl]-phenyl}-amide], affinity in assay [1] (Table 1) was put at a Ki of 2.5 nM.

`COc1cc(Nc2nc(N)c(-c3nc(-c4cccc(NC(=O)c5cc(Cl)ccn5)c4)cs3)s2)cc(OC)c1OC` [D(11), 4-Chloro-pyridine-2-carboxylic acid {3-[4′-amino-2′-(3,4,5-trimethoxy-phenylamino)-[2,5′]bithiazolyl-4-yl]-phenyl}-amide] registered a Ki in assay [1] (Table 1) of 1.9 nM.

In the case of `COc1cc(Nc2nc(N)c(-c3nc(-c4cccc(NC(=O)c5cc(C)cc(C)c5)c4)no3)s2)cc(OC)c1OC` [D(56), N-(3-{5-[4-Amino-2-(3,4,5-trimethoxy-phenylamino)-thiazol-5-yl]-[1,2,4]oxadiazol-3-yl}-phenyl)-3,5-dimethyl-benzamide trifluoroacetate salt], the affinity in assay [1] (Table 1), expressed as Ki, was 0.81 nM.

In the case of `Nc1nc(NC(=O)c2cccs2)sc1-c1nc(-c2cccc(NC(=O)c3cccc(Cl)c3)c2)no1` [F(5), Thiophene-2-carboxylic acid (4-amino-5-{3-[3-(3-chloro-benzoylamino)-phenyl]-[1,2,4]oxadiazol-5-yl}-thiazol-2-yl)-amide], in assay [1] (Table 1), the “FLVK-P % inhibition @ 50” value amounted to 31% @.

For `Nc1nc(Nc2cccnc2)sc1-c1nc(-c2cccc(NC(=O)c3cccc(Cl)c3)c2)no1` [D(52), 3-[3-(3-Chlorobenzamido)phenyl]-5-[2-(3-aminopyridyl)-4-amino-5-thiazolyl]-1,2,4-oxadiazole], the “FLVK-P % inhibition @ 50” value in assay [1] (Table 1) is reported as 27% @.

In the case of `CCC(=O)Nc1nc(N)c(-c2nc(-c3cccc(NC(=O)c4cccc(Cl)c4)c3)no2)s1` [F(6), N-{3-[5-(4-Amino-2-propionylamino-thiazol-5-yl)-[1,2,4]oxadiazol-3-yl]-phenyl}-3-chloro-benzamide], in assay [1] (Table 1), the “FLVK-P % inhibition @ 50” value is reported as 34% @.

In assay [1] (Table 2), `COc1cc(Nc2nc(N)c(C3=NC(c4cccc(O)c4)CO3)s2)cc(OC)c1OC` (stereo not shown) [I(9), S-3-{2-[4-Amino-2-(3,4,5-trimethoxy-phenylamino)-thiazol-5-yl]-4,5-dihydro-oxazol-4-yl}-phenol] registered a Ki of 83 nM.

`COc1cc(Nc2nc(N)c(-c3nc(-c4cccc(NC(=O)c5ccccc5C)c4)no3)s2)cc(OC)c1OC` [D(57), N-(3-{5-[4-Amino-2-(3,4,5-trimethoxy-phenylamino)-thiazol-5-yl]-[1,2,4]oxadiazol-3-yl}-phenyl)-2-methyl-benzamide trifluoroacetate salt]: the affinity in assay [1] (Table 1), expressed as Ki, was 18 nM.

In assay [1] (Table 1), `Nc1nc(NC(=O)c2ccccc2)sc1-c1nc(-c2cccc(NC(=O)c3cccc(Cl)c3)c2)no1` [F(7), N-{3-[5-(4-amino-2-benzoylamino-thiazol-5-yl)-[1,2,4]oxadiazol-3-yl]-phenyl}-3-chloro-benzamide] returned a Ki of 114 nM.

In assay [1] (Table 1), `COc1cc(Nc2nc(N)c(-c3nc(-c4cccc(NC(=O)c5cccc(Cl)n5)c4)cs3)s2)cc(OC)c1OC` [D(54), 6-Chloro-pyridine-2-carboxylic acid {3-[4′-amino-2′-(3,4,5-trimethoxy-phenylamino)-[2,5′]bithiazolyl-4-yl]-phenyl}-amide] came in with a Ki of 6.3 nM.

In turn, `COc1cc(Nc2nc(N)c(-c3nc(-c4cccc(NC(=O)c5ccnc(Cl)c5)c4)cs3)s2)cc(OC)c1OC` [D(55), N-{3-[4′-Amino-2′-(3,4,5-trimethoxy-phenylamino)-[2,5′]bithiazolyl-4 yl]-phenyl}-2-chloro-isonicotinamide] returned a Ki in assay [1] (Table 1) of 6.3 nM.

Turning to `COc1cc(Nc2nc(N)c(C3=NC(c4ccc(Br)cc4)CO3)s2)cc(OC)c1OC` (racemic) [I(12), (R/S)-5-[4-(4-Bromo-phenyl)-4,5-dihydro-oxazol-2-yl]-N^2-(3,4,5-trimethoxy-phenyl)-thiazole-2,4-diamine], the “FLVK-P % inhibition @ 20” value in assay [1] (Table 2, at 20 (head μM)) worked out at 71% @.

`COc1cc(Nc2nc(N)c(-c3nc(-c4cccc(NC(=O)c5ccc(C)c(C)c5)c4)cs3)s2)cc(OC)c1OC` [D(31), N-{3-[4′-Amino-2′-(3,4,5-trimethoxy-phenylamino)-[2,5′]bithiazolyl-4-yl]-phenyl}-3,4-dimethyl-benzamide] yielded a Ki in assay [1] (Table 1) of 4.8 nM.

For `COc1cc(Nc2nc(N)c(-c3nc(-c4cccc(NS(=O)(=O)Cc5ccccc5)c4)cs3)s2)cc(OC)c1OC` [D(2), N-{3-[4′-Amino-2′-(3,4,5-trimethoxy-phenylamino)-[2,5′]bithiazolyl-4-yl]-phenyl}-C-phenyl-methanesulfonamide], the Ki in assay [1] (Table 1) amounted to 98 nM.

In assay [2] (Table 1), `CNC(=O)Nc1nc(N)c(-c2nc(-c3cccc(NC(=O)c4cccc(C)c4)c3)no2)s1` [F(8), N-(3-[5-[4-Amino-2-(3-methyl-ureido)-thiazol-5-yl]-[1,2,4]oxadiazol-3-yl}-phenyl)-3-methyl-benzamide] yielded a 50% inhibitory concentration (IC50) of 0.022 µM. For the same compound, the Ki in assay [1] (Table 1) is 1.9 nM.

Take `COc1cc(Nc2nc(N)c(-c3nc(-c4cccc(NC(=O)CCc5ccccc5)c4)cs3)s2)cc(OC)c1OC` [D(16), N-{3-[4′-Amino-2′-(3,4,5-trimethoxy-phenylamino)-[2,5′]bithiazolyl-4-yl]-phenyl}-3-phenyl-propionamide]: the affinity in assay [1] (Table 1) corresponds to a Ki of 11.8 nM.

In turn, `COC(=O)Nc1nc(N)c(-c2nc(-c3cccc(NC(=O)c4ccc(Cl)s4)c3)cs2)s1` [F(3), (4′-Amino-4-{3-[(5-chloro-thiophene-2-carbonyl)-amino]-phenyl}-[2,5′]bithiazolyl-2′-yl)-carbamic acid methyl ester] came in with a Ki in assay [1] (Table 1) of 80 nM.

`COc1cc(Nc2nc(N)c(-c3nc(-c4cccc(NC(C)=O)c4)cs3)s2)cc(OC)c1OC` [D(1), N-{3-[4′-Amino-2′-(3,4,5-trimethoxy-phenylamino)-[2,5′]bithiazolyl-4-yl]-phenyl}acetamide] gave a Ki in assay [1] (Table 1) of 46 nM.

Regarding `N#Cc1cccc(Nc2nc(N)c(-c3nc(-c4cccc(NC(=O)c5cccc(Cl)c5)c4)no3)s2)c1` [D(78)], at 1 µM the inhibition in assay [1] was 9%.

As for `COc1cc(Nc2nc(N)c(-c3nc(-c4cccc(NC(=O)c5ccc(F)cc5)c4)cs3)s2)cc(OC)c1OC` [D(28), N-{3-[4′-Amino-2′-(3,4,5-trimethoxy-phenylamino)-[2,5′]bithiazolyl-4-yl]-phenyl}-4-fluoro-benzamide], the Ki in assay [1] (Table 1) worked out at 6 nM.
